We go through 1 molecule from patent US6645983B1, “Pharmaceutical compositions comprising 4-quinolones for treating cancers” (Laboratoire L. Lafon, priority 1999, dated 2003).

The structures appear in SMILES notation.

System in one data set: not listed separately
Briefly: Determination of the maximum tolerated dose (MTD). The note with it: B6D2F1/Jico, mouse, in vivo, ip; single intraperitoneal administration, doses 2.5 to 160 mg/kg, survival over 14 days. As to the method:
The evaluation of the maximum tolerated dose was performed on 4- to 6-week-old B6D2F1/Jico mice. The compounds were administered intraperitoneally at increasing doses ranging from 2.5 to 160 mg/kg. The value of the MTD (expressed in mg/kg) is determined from the observation of the survival rate of the animals over a 14-day period after a single administration of the product under consideration. The change in weight of the animals is also monitored during this period. When the MTD value is greater than 160 mg/kg, the MTD value is considered as being 160 mg/kg by default.
As for `COc1ccc(-c2cn(C)c3cc(OC)ccc3c2=O)cc1` [CRL8464, 7-Methoxy-3-(4-methoxyphenyl)-1-methyl-1,4-dihydro-4-quinolinone], the MTD at 14 day is more than 160 mg/kg.

For a further data set, the system named is T24. The data set is described as follows: MTT test, cytotoxic activity on non-clonogenic cell lines. The class given is cell-based. The note with it: Homo sapiens, T-24; T24; 10^−5 M; 72 hours incubation; MTT; mean value; read-out: mean optical density, expressed as percentage relative to the mean optical density under the control condition (100%). How it is done:
(§1) The principle of the MTT test is based on the mitochondrial reduction, by the metabolically active live cells, of the yellow-colored product MTT (3-(4,5-dimethylthiazol-2-yl)-2,5-diphenyltetrazolium bromide) to a blue-colored product, formazan. The amount of formazan thus obtained is directly proportional to the amount of live cells present in the culture well(s). This amount of formazan is measured by spectrophotometry.
(§2) The cell lines are maintained as a monolayer culture at 37° C. in stoppered culture dishes containing MEM 25 MM HEPES (Minimum Essential Medium) base medium. This medium is suited to the growth of a range of various mammalian diploid or primary cells. This medium is then supplemented with:
(§3) The 12 human cancer cell lines which were used were obtained from the American Type Culture Collection (ATCC, Rockville, Md., USA). These 12 cell lines are:
(§4) J82 (code ATCC: HTB-1) and T24 (code ATCC: HTB-4) which are two bladder cancers,
(§5) Experimentally, 100 μl of a cell suspension containing 20 000 to 50 000 (depending on the cell type used) cells/ml of culture medium are inoculated -in 96-well flat-bottomed multi-well plates and are left to stand in an incubator at 37° C., 5% CO2 and 70% humidity. After an incubation time of 24 hours, the culture medium is replaced with 100 μl of fresh medium containing either the various test compounds—at concentrations varying from 10^−5 to 10^−10 M—or the solvent having served for dissolving the products to be tested (control condition). […] The microplates are thus incubated for 3 hours at 37° C., then centrifuged for 10 minutes at 400 g. The yellowish solution of MTT is removed and the blue formazan crystals formed in the cell region are dissolved in 100 μl or DMSO. The microplates are then shaken for 5 minutes. […] Software incorporated in the spectrophotometer calculates the average optical density values and the standard deviation (SD) and standard error of mean (SEM) values.
As to `COc1ccc(-c2cn(C)c3cc(OC)ccc3c2=O)cc1` [CRL8464, 7-Methoxy-3-(4-methoxyphenyl)-1-methyl-1,4-dihydro-4-quinolinone], the viability at 10 µM is 105%.

A further data set relates to J82. The data set is described as above. The settings on record: Homo sapiens, 10^−5 M, 72 hours incubation, MTT, mean value, read-out: mean optical density, expressed as percentage relative to the mean optical density under the control condition (100%). The class given is cell-based. How it is done:
as §1, §2, §3, §4, §5
`COc1ccc(-c2cn(C)c3cc(OC)ccc3c2=O)cc1` [CRL8464, 7-Methoxy-3-(4-methoxyphenyl)-1-methyl-1,4-dihydro-4-quinolinone]: the viability at 10 µM was 95.4%.

The subject of the next data set is SW1088. The description is as above. The class given is cell-based. The note with it: Homo sapiens, 10^−5 M, 72 hours incubation, MTT, mean value, read-out: mean optical density, expressed as percentage relative to the mean optical density under the control condition (100%). As to the method: as §1, §2, §3
SW1088 (code ATCC: HTB-12) which is an astro-cytoma,
as §5
In the case of `COc1ccc(-c2cn(C)c3cc(OC)ccc3c2=O)cc1` [CRL8464, 7-Methoxy-3-(4-methoxyphenyl)-1-methyl-1,4-dihydro-4-quinolinone], the viability at 10 µM came out at 95.6%.

For another data set, the system named is A-427. Described as above. The class given is cell-based. The note with it: Homo sapiens, 10^−5 M, 72 hours incubation, MTT, mean value, read-out: mean optical density, expressed as percentage relative to the mean optical density under the control condition (100%). As to the method: as §1, §2, §3, §5
For `COc1ccc(-c2cn(C)c3cc(OC)ccc3c2=O)cc1` [CRL8464, 7-Methoxy-3-(4-methoxyphenyl)-1-methyl-1,4-dihydro-4-quinolinone], the viability at 10 µM is 102%.

The next data set relates to A549. Described as above. The data set is classed as cell-based. The note with it: Homo sapiens, 10^−5 M, 72 hours incubation, MTT, mean value, read-out: mean optical density, expressed as percentage relative to the mean optical density under the control condition (100%). As to the method: as §1, §2, §3, §5
Consider `COc1ccc(-c2cn(C)c3cc(OC)ccc3c2=O)cc1` [CRL8464, 7-Methoxy-3-(4-methoxyphenyl)-1-methyl-1,4-dihydro-4-quinolinone], for which the viability at 10 µM turned out to be 91.3%.

A further data set deals with U-373MG. The description is as above. The class given is cell-based. The note with it: Homo sapiens, U373 MG; U-373MG; 10^−5 M; 72 hours incubation; MTT; mean value; read-out: mean optical density, expressed as percentage relative to the mean optical density under the control condition (100%). How it is done: as §1, §2, §3, §5
For the molecule `COc1ccc(-c2cn(C)c3cc(OC)ccc3c2=O)cc1` [CRL8464, 7-Methoxy-3-(4-methoxyphenyl)-1-methyl-1,4-dihydro-4-quinolinone], the viability at 10 µM came to 118%.

The test system of a further data set is MCF7. The data set is described as above. The data set is classed as cell-based. The note with it: Homo sapiens, 10^−5 M, 72 hours incubation, MTT, mean value, read-out: mean optical density, expressed as percentage relative to the mean optical density under the control condition (100%). How it is done:
as §1, §2, §3, §5
With `COc1ccc(-c2cn(C)c3cc(OC)ccc3c2=O)cc1` [CRL8464, 7-Methoxy-3-(4-methoxyphenyl)-1-methyl-1,4-dihydro-4-quinolinone], the viability at 10 µM turned out to be 99.8%.

The next data set has as its system PC-3. Described as above. The class given is cell-based. The settings on record: Homo sapiens, 10^−5 M, 72 hours incubation, MTT, mean value, read-out: mean optical density, expressed as percentage relative to the mean optical density under the control condition (100%). How it is done:
as §1, §2, §3, §5
With `COc1ccc(-c2cn(C)c3cc(OC)ccc3c2=O)cc1` [CRL8464, 7-Methoxy-3-(4-methoxyphenyl)-1-methyl-1,4-dihydro-4-quinolinone], the viability at 10 µM turned out to be 97.1%.

For another data set, the system named is T-47D. Described as above. The class given is cell-based. The note with it: Homo sapiens, T47D; T-47D; 10^−5 M; 72 hours incubation; MTT; mean value; read-out: mean optical density, expressed as percentage relative to the mean optical density under the control condition (100%). How it is done: as §1, §2, §3, §5
For the molecule `COc1ccc(-c2cn(C)c3cc(OC)ccc3c2=O)cc1` [CRL8464, 7-Methoxy-3-(4-methoxyphenyl)-1-methyl-1,4-dihydro-4-quinolinone], the viability at 10 µM is 110%.

The subject of another data set is LoVo. The data set is described as above. The data set is classed as cell-based. The settings on record: Homo sapiens, 10^−5 M, 72 hours incubation, MTT, mean value, read-out: mean optical density, expressed as percentage relative to the mean optical density under the control condition (100%). How it is done:
as §1, §2, §3, §5
Regarding `COc1ccc(-c2cn(C)c3cc(OC)ccc3c2=O)cc1` [CRL8464, 7-Methoxy-3-(4-methoxyphenyl)-1-methyl-1,4-dihydro-4-quinolinone], the viability at 10 µM turned out to be 101%.

In a further data set the test system is U-87MG. The data set is described as above. The class given is cell-based. The settings on record: Homo sapiens; U-87MG; 10^−5 M; 72 hours incubation; MTT; mean value; read-out: mean optical density, expressed as percentage relative to the mean optical density under the control condition (100%). How it is done:
as §1, §2, §3, §5
As for `COc1ccc(-c2cn(C)c3cc(OC)ccc3c2=O)cc1` [CRL8464, 7-Methoxy-3-(4-methoxyphenyl)-1-methyl-1,4-dihydro-4-quinolinone], the viability at 10 µM worked out at 105%.

A further data set deals with HCT-15. The description is as above. The data set is classed as cell-based. The note with it: Homo sapiens, HCT-16, 10^−5 M, 72 hours incubation, MTT, mean value, read-out: mean optical density, expressed as percentage relative to the mean optical density under the control condition (100%). How it is done: as §1, §2, §3, §5
`COc1ccc(-c2cn(C)c3cc(OC)ccc3c2=O)cc1` [CRL8464, 7-Methoxy-3-(4-methoxyphenyl)-1-methyl-1,4-dihydro-4-quinolinone]: the viability at 10 µM is 111%.
